From publication PMC12010006, “Subnanomolar MAS-related G protein-coupled receptor-X2/B2 antagonists with efficacy in human mast cells and disease models” (Signal Transduction and Targeted Therapy, 2025)
Like-named read-outs stand apart in the source and are kept apart here.

Columns and labels:
Assay type in all cases: cell-based
[1] = target: T1, MRGPRX1 (Homo sapiens, UniProt Q96LB2); test: β-arrestin assay, CHO cells expressing MRGPRX1 (subtype selectivity); conditions: 10 µM, versus BAM-22P (8.5 µM)
T1 construct: host or cells: CHO-K1 beta-arrestin-2 (EA) cells
T1 sequence (Q96LB2 whole entry): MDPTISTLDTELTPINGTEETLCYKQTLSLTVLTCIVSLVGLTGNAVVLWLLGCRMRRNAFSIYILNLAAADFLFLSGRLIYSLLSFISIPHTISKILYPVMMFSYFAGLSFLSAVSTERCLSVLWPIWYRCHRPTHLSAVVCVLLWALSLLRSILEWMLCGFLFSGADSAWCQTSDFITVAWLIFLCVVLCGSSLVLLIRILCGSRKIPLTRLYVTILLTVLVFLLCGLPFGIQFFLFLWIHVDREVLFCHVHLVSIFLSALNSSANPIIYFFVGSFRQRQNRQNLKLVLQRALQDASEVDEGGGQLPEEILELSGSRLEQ
Procedure: (§1) Fig. 1 Characterization of MRGPRX2 inhibitor 1. a Chemical structure and molecular weight (MW) of 1. b Concentration-response curve of 1 determined in β-arrestin recruitment assays. CHO cells that recombinantly express MRGPRX2 were employed versus the agonist CST-14 (at its EC80 value of 1.0 µM). […] Data are means ± SEM of 3 biological replicates, performed in duplicates. c MRGPRX subtype selectivity of 1 (10 µM) determined in β-arrestin assays using CHO cells that recombinantly express the respective MRGPRX subtype. MRGPRX1 was activated by BAM-22P (8.5 µM),[19] MRGPRX2 was activated by CST-14 (1 µM), MRGPRX3 was activated by PSB-20294 (1 µM), and MRGPRX4 by PSB-18061 (2.6 µM).[44] […] The effect of each MRGPRX agonist was assessed in the absence and in the presence of 1; results were normalized to the maximal agonist effect. […] Statistical significance was determined by one-way ANOVA (Tukey’s multiple comparisons) test (ns P > 0.05 and ****P < 0.0001) TEXT PRINTED IN THE PICTURE: (a) 1 Hit compound: MW: 241.29 g/mol
(§2) Fig. 3 Biological characterization of PSB-172656. a Selectivity of PSB-172656 (100 nM) for MRGPRX2 over MRGPRX1, MRGPRX3, and MRGPRX4 measured in β-arrestin assays utilizing β-arrestin-CHO cells with recombinant expression of the respective receptor. […] Statistical significance was determined by one-way ANOVA (Tukey’s multiple comparison) test (ns P > 0.05). […]

[2] = target: T2, MRGPRX3 (Homo sapiens, UniProt Q96LB0); test: β-arrestin assay, CHO cells expressing MRGPRX3 (subtype selectivity); conditions: 10 µM, versus PSB-20294
T2 construct: inferred from the enzyme-complementation principle of the assay; expressed in transfected cells; host or cells: CHO-K1 beta-arrestin-2 (EA) cells
T2 sequence (Q96LB0 whole entry): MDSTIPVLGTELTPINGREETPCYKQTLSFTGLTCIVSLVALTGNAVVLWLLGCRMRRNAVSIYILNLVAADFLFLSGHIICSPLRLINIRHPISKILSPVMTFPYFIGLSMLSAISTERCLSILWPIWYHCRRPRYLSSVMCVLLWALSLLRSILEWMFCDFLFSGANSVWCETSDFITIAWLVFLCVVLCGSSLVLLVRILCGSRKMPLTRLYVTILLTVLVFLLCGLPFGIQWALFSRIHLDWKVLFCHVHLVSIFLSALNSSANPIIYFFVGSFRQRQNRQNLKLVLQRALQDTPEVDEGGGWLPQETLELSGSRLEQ
Procedure: as §1, §2

[3] = target: T3, MRGPRX4 (Homo sapiens, UniProt Q96LA9); test: β-arrestin assay, CHO cells expressing MRGPRX4 (subtype selectivity); conditions: 10 µM, versus PSB-18061 (2.6 µM)
T3 construct: host or cells: CHO-K1 beta-arrestin-2 (EA) cells
T3 sequence (Q96LA9 whole entry): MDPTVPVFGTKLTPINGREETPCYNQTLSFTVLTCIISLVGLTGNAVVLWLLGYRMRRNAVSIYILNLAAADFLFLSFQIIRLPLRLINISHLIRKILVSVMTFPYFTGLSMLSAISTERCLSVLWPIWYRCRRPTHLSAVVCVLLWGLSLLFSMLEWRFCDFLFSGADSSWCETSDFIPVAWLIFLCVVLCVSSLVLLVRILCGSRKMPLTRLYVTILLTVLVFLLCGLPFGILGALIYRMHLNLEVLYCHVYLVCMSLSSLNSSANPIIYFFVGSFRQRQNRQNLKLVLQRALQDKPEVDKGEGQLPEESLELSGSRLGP
Procedure: as §1, §2

[4] = target: T4, MRGPRX2 (Homo sapiens, UniProt Q96LB1); test: β-arrestin recruitment assay (antagonist mode), β-arrestin-CHO cells recombinantly expressing MRGPRX2; parameters: expressed in transfected cells
T4 sequence (Q96LB1 1-330): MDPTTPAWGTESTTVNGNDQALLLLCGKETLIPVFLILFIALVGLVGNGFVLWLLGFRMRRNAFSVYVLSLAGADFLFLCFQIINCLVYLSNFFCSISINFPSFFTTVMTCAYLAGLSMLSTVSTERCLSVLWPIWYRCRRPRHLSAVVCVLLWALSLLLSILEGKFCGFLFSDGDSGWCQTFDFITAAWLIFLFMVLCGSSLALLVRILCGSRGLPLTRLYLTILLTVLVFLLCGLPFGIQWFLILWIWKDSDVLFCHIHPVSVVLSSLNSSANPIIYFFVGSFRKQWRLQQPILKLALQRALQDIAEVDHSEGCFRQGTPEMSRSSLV

[5] = versus CST-14 (EC80 1,000 nM, EC50 483 nM), Cheng-Prusoff, read-out: β-Arrestin assay Ki ± SEM

CCc1c(C(C)C)[nH]c2nc3cc(F)c(F)cc3n2c1=O [Compound 24, 3-ethyl-7,8-difluoro-2-isopropylbenzo[4,5]imidazo [1,2-a] pyrimidin-4(1H)-one]
inhibition of MRGPRX1 activation [1]: not able to block | inhibition of MRGPRX3 activation [2]: not able to block | inhibition of MRGPRX4 activation [3]: not able to block | blockade of MRGPRX2 activation ([4]; 10 µM, versus CST-14 (1 µM)): completely blocked | difference of Ki versus other agonists from the Ki value versus CST-14 ([4]; all investigated agonists): < 2 fold | Schild plot slope ([4]; versus (R)-ZINC-3573): 0.891 | IC50 ([4]; versus (R)-ZINC-3573 (EC80 2 µM), read-out: IC50 versus (R)-ZINC-3573, β-arrestin assay): 11.3 ± 3.1 nM | Ki ([4]; versus (R)-ZINC-3573 (EC80 2 µM), read-out: Ki versus (R)-ZINC-3573, β-arrestin assay): 5.44 nM | Kb ([4]; versus (R)-ZINC-3573, read-out: KB value (Schild plot)): 7.59 nM | Kb ([4]; versus (R)-ZINC-3573, read-out: pKB value (Schild plot) (converted)): 7.41 nM | Ki ([4]; versus C48/80 (EC80 18 µM), read-out: Ki versus compound 48/80, β-arrestin assay): 3.68 nM | Ki [4, 5]: 6.81 nM | Kb ([4]; versus CST-14, read-out: pKB value (Schild plot) (converted)): 6.76 nM | mode of action (inhibition type) ([4]; versus CST-14 and (R)-ZINC-3573): competitive mode of action | selectivity for MRGPRX2 versus other MRGPRX subtypes ([4]; versus MRGPRX1, -X3, -X4): at least 1000 fold | IC50 ([4]; versus SP (EC80 3 µM), read-out: IC50 versus substance P, β-arrestin assay): 30.5 ± 6.3 nM | Ki ([4]; versus SP (EC80 3 µM), read-out: Ki versus substance P, β-arrestin assay): 8.82 nM | IC50 ([4]; versus clomipramine (EC80 13 µM), read-out: IC50 versus clomipramine, β-arrestin assay): 17.2 ± 0.4 nM | Ki ([4]; versus clomipramine (EC80 13 µM), read-out: Ki versus clomipramine, β-arrestin assay): 7.04 nM

CCCc1c(C)[nH]c2nc3ccccc3n2c1=O [Compound 1, 2-methyl-3-propylbenzo[4,5]imidazo[1,2-a]pyrimidin-4(1H)-one]
inhibition of MRGPRX1 activation [1]: no inhibition | inhibition of MRGPRX3 activation [2]: no inhibition | inhibition of MRGPRX4 activation [3]: no inhibition | IC50 ([4]; versus CST-14 (EC80 1.0 µM), read-out: IC50, β-arrestin assay): 2420 ± 220 nM | Ki [4, 5]: 788 ± 143 nM
